In patent US11896644B2, “Inhibition of beta-arrestin oligomerization in tauopathy” (UNIVERSITY OF SOUTH FLORIDA, priority 2020, dated 2024):

Assays:
[1] = test system: total tau levels in HeLa-V5-tau cells; assay: Total tau by western blotting in HeLa-V5-tau cells treated with compounds; format: cell-based; conditions: 10 μM, 6 hours
Procedure: (§1) Brain homogenates and cultured cells were lysed with RIPA buffer (50 mM Tris pH 7.4, 150 mM NaCl, 2 mM ethlenediaminetetraacetic acid, 1% NP-40, 0.1% sodium dodecyl sulfate) plus protease and phosphatase inhibitors. Proteins were extracted and centrifuged at 15000 rpm for 15 min at 4° C., and RIPA insoluble fractions were lysed with 5% SDS with 1% β-mercaptoethanol, 50 mM Tris-HCl pH 6.8, 12.5 mM EDTA, 10% glycerol, and 0.02% bromophenol blue. Supernatants were used for western blot analysis. […]. co-IP experiments were carried out from NP40 lysates or indicated buffers with preclearing with IgG beads followed by IP with IgG beads alone or IgG beads+indicated antibodies, extensive washing (5×) with the original buffer, and Western blotting on SDS-PAGE. Sarkosyl extraction was performed as previously described (Hasegawa M, et al. (2007) Brain 130(Pt 5):1386-1394). Briefly, brain homogenates were lysed with A68 buffer containing 10 mM Tris-HCl, pH 7.4, 0.8M NaCl, 10% Sucrose, 1 mM EGTA). Samples were centrifuged at 400 g for 20 min at 4° C., and 1% sarkosyl was added to the collected supernatants. The samples were incubated for 1.5 h and centrifuged at 80,000 g for 30 min at room temperature. The pellets were resuspended in 100 ul of 50 mM Tris-HCl, pH 7.4.
(n=4, one-way ANOVA, post hoc Dunnett's, **P<0.005, ***P<0.0005).

[2] = test system: sarkosyl-insoluble tau in HeLa-V5-tau cells; assay: Sarkosyl soluble and insoluble fractionation of compound-treated HeLa-V5-tau cells; format: cell-based; conditions: 20 μM, 6 hours
Procedure: as §1
FIGS. 27A and 27B show C1 and C2 compounds reduce pathogenic tau. […]

[3] = test system: HT7 (total human tau) in Tau-P301S hippocampal primary neurons; assay: HT7 staining of DIV21 hippocampal primary neurons from Tau-P301S mice treated with compounds; format: cell-based; conditions: 20 μM, 6 hours
Procedure: Primary mouse hippocampal and cortical neuronal cultures were previously described (Woo J A, et al. (2019) Commun Biol 2:112; Woo J A, et al. (2017) Hum Mol Genet 26(20):3973-3988; Woo J A, et al. (2015) Cell Death Differ 22(6):1069-1070). Briefly, primary neurons were prepared from P0 mice. Both hippocampus and cortex were dissected separately in HBSS and digested with trypsin. Neurons were plated on glass coverslips coated with poly-D-lysine (Sigma-Aldrich, St Louis, MO, USA) and maintained in neurobasal medium with glutamax (Invitrogen, Carlsbad, CA, USA) and B27 supplement (Invitrogen, Carlsbad, CA, USA).
Cells were fixed with 4% paraformaldehyde for 15 min at room temperature and washed with 0.2% triton in TBS and blocked using 3% BSA with 0.1% triton x-100 for 1 hr, incubated with primary antibodies for overnight at 4° C. and fluorescently labeled secondary antibodies for 45 min at room temperature. […] Images were captured with the Olympus FV10i confocal microscope (Tokyo, Japan), and the immunoreactivities were quantified using the Image J software (National Institutes of Health, Bethesda, MD). Immunoreactivities were quantitated from every 12th serial section through an entire hippocampus. […] Regions of interest were chosen randomly, and investigators were blinded to experimental conditions during image acquisition and quantification. […]

[4] = target: T1, GFP-βarrestin2/Flag-βarrestin2 complexes (β-arrestin2 oligomerization) (Rattus norvegicus, UniProt P29067); assay: Proximity ligation assay (PLA) for GFP-βarrestin2/Flag-βarrestin2 complexes; format: cell-based; conditions: 20 μM, 6 hours, Hela-V5-tau cells
T1 construct: expressed in transfected cells; host or cells: Hela-V5-tau cells
T1 sequence (P29067 whole entry, one chain of several): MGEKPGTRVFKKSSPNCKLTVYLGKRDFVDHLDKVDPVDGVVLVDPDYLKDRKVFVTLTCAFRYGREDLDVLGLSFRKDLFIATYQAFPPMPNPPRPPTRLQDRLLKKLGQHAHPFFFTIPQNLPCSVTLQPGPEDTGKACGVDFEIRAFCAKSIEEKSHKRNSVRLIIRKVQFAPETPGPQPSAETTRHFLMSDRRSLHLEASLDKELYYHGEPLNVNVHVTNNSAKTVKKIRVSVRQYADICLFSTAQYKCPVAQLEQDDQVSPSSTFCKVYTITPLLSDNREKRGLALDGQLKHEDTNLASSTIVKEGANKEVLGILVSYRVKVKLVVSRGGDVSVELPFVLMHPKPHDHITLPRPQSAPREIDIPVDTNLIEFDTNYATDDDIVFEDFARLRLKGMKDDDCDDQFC
Procedure: The assay was performed using commercially available reagents (Duolink, Sigma-Aldrich, St Louis, MO), with transfection of Hela V5-tau cells with WT β-arrestin2-flag and β-arrestin2-myc, without and with the mutant β-arrestin2 ΔIP6C or β-arrestin2 ΔIP6N constructs. Cells were fixed with 4% paraformaldehyde for 15 min at room temperature and washed with 0.2% triton in TBS. After washing, cells were blocked with 0.2% Triton in 3% Normal goat serum for 1 hour at room temperature. After applying primary antibodies overnight at 4° C., cells were washed and incubated with the PLA probes at 37° C. (1 h), washed with buffer A, incubated with ligation solution at 37° C. (30 min), washed with washing buffer A, incubated with amplification solution at 37° C. (100 min), and washed with washing buffer B before mounting.
FIGS. 28A and 28B show compounds C2 and C2 inhibit β-arrestin2 oligomerization. Hela-V5-tau cells were transfected with GFP-βarrestin2 and Flag-βarrestin2 and treated with 20 μM of 01, C1, or C2 for 6 hours.

[5] = target: T2, GFP-βarrestin2/Flag-βarrestin2 complexes (βarrestin2 self-interaction) (Rattus norvegicus, UniProt P29067); assay: Co-immunoprecipitation (co-IP) for GFP-βarrestin2/Flag-βarrestin2 complexes; format: cell-based; conditions: 20 μM, 6 hours, Hela-V5-tau cells
T2 construct: expressed in transfected cells; host or cells: Hela-V5-tau cells
T2 sequence (P29067 whole entry, one chain of several): as above
Procedure: as §1
FIGS. 28A and 28B show compounds C2 and C2 inhibit β-arrestin2 oligomerization. […]

[6] = target: T3, β-arrestin2 oligomerization (Rattus norvegicus, UniProt P29067); assay: FRET assay CFP-βarrestin2/YFP-βarrestin2 in Hela-V5-tau cells; format: cell-based; conditions: 20 μM, 30 min
T3 construct: expressed in transfected cells; host or cells: Hela-V5-tau cells
T3 sequence (P29067 whole entry): as the sequence (P29067 whole entry, one chain of several) above

phospho-tau [7] = assay: Phospho-tau in tauP301S cortical primary neurons treated with GPCR agonists; format: cell-based, mice; conditions: 10 μM
Text: FIGS. 20A to 20E show β-arrestin is required mGluR2 and β2AR mediated tau accumulation and phosphorylation. […] Representative blots are shown. […] Unpaired t-test. All data are presented as mean±SEM. […] Representative blots are shown. […] Unpaired t-test. All data are presented as mean±SEM. […] Representative blots are shown.
Based on these prior observations, the goal was to confirm these findings in tauP301S transgenic primary neurons and Hela cells stably expressing tau (V5-tagged 4R0N tau, Hela-V5-tau cells).

phospho-tau [8] = assay: Phospho-tau immunoblot in Hela-V5-tau cells transfected with siRNA and treated with GPCR agonists; format: cell-based; conditions: for tau phosphorylation: 10 μM, control siRNA or β-arrestin2 siRNA experiment (FIGS. 13E,13F); for phospho-tau response in β-arrestin1 siRNA transfected cells: β-arrestin1 knockdown; for tau phosphorylation, control siRNA transfected cells: β-arrestin1 siRNA experiments (FIGS. 13A-13D)
Procedure: FIGS. 13A to 13F show β-arrestin1 is required for mGluR2 and β2AR mediated increase in pathogenic tau. […] After transfection, cells were treated with either vehicle or 10 μM isoproterenol (Iso), lysed and immunoblotted for indicated proteins. Representative blots are shown. […] 1-way ANOVA with Dunnett's test. […] Representative blots are shown. […] 1-way ANOVA with Dunnett's test. […] 1-way ANOVA with Dunnett's test.
At present, it is not clear how different GPCRs, such as β2AR and mGluR2, and their agonists alter tau phosphorylation. One commonality of downstream signaling between these GPCRs is β-arrestin1 and β-arrestin2, which were initially identified and characterized based on its function to internalize and desensitize GPCRs, including β2AR (Lohse, M. J. et al. J Biol Chem (1992) 267:8558-8564) and mGluR2 (lacovelli, L. et al. Mol Pharmacol (2009) 75:991-1003). To test whether β-arrestin1 and/or β-arrestin2 is required for β2AR-mediated regulation of tau, Hela-V5-tau cells were transfected with control siRNA or β-arrestin1 siRNA and treated either vehicle or 10 μM Iso. […] Next, assessed was whether β-arrestin1 is required for mGluR2-mediated tau phosphorylation. […] Next, Hela-V5-tau cells were transfected with control siRNA or β-arrestin2 siRNA and treated vehicle, 10 μM Iso or LY-379,268.

tau phosphorylation [9] = conditions: cited from earlier work
tau phosphorylation [10] = conditions: cited from earlier work; remark: listed apart in the source

**Q.** Which total tau levels [1] does the source give for O=C(CNC(=O)c1ccc2c(c1)CCC2)NCc1cn2ccccc2n1 [C1, 2-[(2,3-dihydro-1H-inden-5-yl)formamido]-N-({imidazo[1,2-a]pyridin-2-yl}methyl)acetamide] here?
**A.** significantly decreased

**Q.** What about the sarkosyl-insoluble tau levels [2] of the same molecule?
**A.** significantly decreased

**Q.** And the “HT7 immunoreactivity (total human tau)” value [3]?
**A.** significantly decreased

**Q.** What about the “βarrestin2 oligomerization by PLA” value [4] of the same molecule?
**A.** significant reduction

**Q.** And the “βarrestin2 self-interaction by co-IP” value [5]?
**A.** reduce βarrestin2 self-interaction to background levels

**Q.** With Cc1ccc(NCCNC(=O)c2cc(-c3ccccc3)no2)nn1 [C2, N-{2-[(6-methylpyridazin-3-yl)amino]ethyl}-3-phenyl-1,2-oxazole-5-carboxamide] as the molecule, how does the total tau levels [1] read?
**A.** significantly decreased

**Q.** What about the sarkosyl-insoluble tau levels [2] of the same molecule?
**A.** significantly decreased

**Q.** And the “HT7 immunoreactivity (total human tau)” value [3]?
**A.** significantly decreased

**Q.** And the “βarrestin2 oligomerization by PLA” value [4]?
**A.** significant reduction

**Q.** What about the “βarrestin2 self-interaction by co-IP” value [5] of the same molecule?
**A.** reduce βarrestin2 self-interaction to background levels

**Q.** And the “CFP to YFP FRET signal” value [6]?
**A.** reduces CFP to YFP FRET signal

**Q.** What does the source list for CC(C)NCC(O)c1ccc(O)c(O)c1 (stereo not drawn) [Isoproterenol]?
**A.** phospho-tau (phospho-tau [7]): significantly increased; tau phosphorylation (phospho-tau [8]): increased; phospho-tau response in β-arrestin1 siRNA transfected cells (phospho-tau [8]): failed to respond; tau phosphorylation, control siRNA transfected cells (phospho-tau [8]): increased; tau phosphorylation in rats (tau phosphorylation [9]): markedly increases tau phosphorylation

**Q.** For N[C@@]1(C(=O)O)CO[C@H]2[C@H](C(=O)O)[C@H]21 [LY-379,268], which phospho-tau (phospho-tau [7]) is on record?
**A.** increased

**Q.** What about the tau phosphorylation (phospho-tau [8]) of the same molecule?
**A.** increased

**Q.** And the “phospho-tau response in β-arrestin1 siRNA transfected cells” value (phospho-tau [8])?
**A.** failure to respond

**Q.** And the “tau phosphorylation, control siRNA transfected cells” value (phospho-tau [8])?
**A.** increased

**Q.** What about the “tau phosphorylation via ERK activation” value (tau phosphorylation [10]) of the same molecule?
**A.** increase tau phosphorylation
